Assay results reported in patent publication US20230034660A1, “PEPTIDES THAT ENHANCE NMDA RECEPTOR FUNCTION AND USE THEREOF” (University of Pittsburgh - Of the Commonwealth System of …, priority 2019, published 2023).

Experiments:
[1] = system: AMPAR; experiment: AMPAR EPSCs in DCN cartwheel cells in brain slices, ZX1 potentiation; assay type: cell-based, mice; details: slices treated with peptide 3 μM; ZX1 100 μM; −70 mV
Description: Male and female mice (postpartum days 18-28) were anesthetized with isoflurane and sacrificed. Brains were rapidly dissected and sectioned into 210 μm thick coronal slices containing dorsal cochlear nucleus (DCN) on a vibratome (Leica, VT1000S). Slices were incubated in ACSF containing 130 mM NaCl, 3 mM KCl, 2.4 mM CaCl2, 1.3 mM MgCl2, 20 mM NaHCO3, 3 mM HEPES, and 10 mM glucose, saturated with 95% O2/5% CO2 (vol/vol), pH ˜7.3, ˜300 mOsm at 35° C. for 1 hour before being moved to room temperature. During preparation, ACSF was treated with Chelex 100 resin to remove any contaminating zinc. After applying Chelex to the ACSF, high-purity calcium and magnesium salts were added (99.995% purity). All plastic and glassware were washed with 5% high-purity nitric acid.
For brain slice recordings, whole-cell recordings of NMDAR EPSCs in slice DCN cartwheel cells were obtained with micropipettes (3-6 MΩ) containing 128 mM Cs(CH3O3S), 4 mM MgCl2·6H2O, 4 mM Na2ATP, 10 mM HEPES, 0.3 mM Tris-GTP, 10 mM Tris-phosphocreatine, 1 mM CsEGTA, 1 mM, QX-314, 3 mM sodium ascorbate, pH=˜7.2, 300 mOsm. […] NMDAR EPSCs were recorded in voltage clamp mode, at a holding potential of +40 mV, in the presence of DNQX (20 μM, AMPA and kainate receptor antagonist), SR95531. […] AMPA EPSCs were recorded in voltage clamp mode at a holding potential of −70 mV in the presence of SR9551. […]

[2] = system: NMDAR; experiment: NMDAR EPSCs in DCN cartwheel cells in brain slices, ZX1 potentiation; assay type: cell-based, mice; details: ZX1 100 μM; for ZX1 potentiation of NMDAR-mediated synaptic currents, 20 Hz: slices treated with peptide 3 μM at least 1 hour, parallel fibers stimulated at 20 Hz, +40 mV

Row | Sequence | ZX1 potentiation of AMPAR EPSCs [1] [%] | ZX1 potentiation of NMDAR-mediated synaptic currents, 20 Hz [2] [%] | ZX1 potentiation of NMDAR-mediated synaptic currents, WT littermates ([2]; N2AZ-treated slices (3 μM) from WT littermate controls, 20 Hz) [%] | ZX1 potentiation of NMDAR-mediated synaptic currents, ZnT3 KO ([2]; N2AZ-treated slices (3 μM) from ZnT3 null mice, 20 Hz) [%] | ZX1 potentiation of NMDAR EPSCs, 100 Hz ([2]; slices treated with peptide 3 μM, 100 Hz stimulation frequency) [%]
1 | SNLSDSYDR [scN2AZ, reference compound] | 30.3±10.24 | 47.30±10.14 |  |  | 
2 | NDSYLRSSL [Peptide N2AZ] | 29.3±6.70 | 19.39±5.82 | 5.60±4.38 | 11.9±6.90 | 1.95±4.33
